Tested on: biofilm
Test: electrolytic cleaning of biofilm-contaminated implant surface (laboratory test)
Details: implants greatly covered and contaminated with a biofilm, on which tartar has also developed; relatively low dosages
From the text: For detaching the bacteria or germs, respectively their residues or fragments, from the surface, it is provided to wet the latter with a conductive treatment liquid, charging it with current, possibly in the form of pulsed current impulses. […] Here, e.g. oil and/or chlorhexidine can be used. Furthermore, ionic liquids, which preferably contain I^−, Cl^− and/or OH^− ions, can also be used.

CC(=O)O [ethanoic acid]
cleaning success: good cleaning success

From US20250204532A1, “Treatment Liquid for Cleaning an Implant Part” (Zyfoma GmbH, priority 2013, published 2025)
